Data published in US10143686B2, “Oxidosqualene cyclase as a protein target for anticancer therapeutics” (The Curators of the University of Missouri, priority 2010, dated 2018).
Where a name gives a salt, the structure may show the parent alone. Read-outs that look alike come from different tables or passages of the source.

How the values were obtained:
[1] = tested on: DU145 prostate cancer cells; assay: SRB cell viability assay, DU145; assay type: cell-based; conditions: Homo sapiens
Description: (§1) The effect of OSC inhibition was evaluated in additional cancer cell lines as well. Cancer cell lines may be purchased from ATCC (Manassas, Va.). The SRB assay has been employed for determination of the inhibitory effects of RO 48-8071 on growth of different cancer cells. Cells were seeded into 96-well plates and incubated overnight at 37° C. with 5% CO2. The culture medium was removed after 24 hours, and cells were washed with DMEM/F12 medium and then treated with various concentrations of RO 48-8071 in 5% FBS culture medium for 24 and 48 hours. Surviving or adherent cells were fixed in situ by withdrawing the growth medium, adding 100 μl PBS and 100 μl 50% trichloroacetic acid and then incubating at 4° C. for one hour. Cells were washed with ice-cold water, dried at room temperature (RT), and then stained with 50 μl 4% SRB for eight minutes at RT. Unbound dye was removed by washing with cold 1% acetic acid for five times, and plates were dried at RT. Bound stain was solubilized with 150 μl 10 mM Tris buffer and absorbance of samples was read at 520 nm with a SpecTRA MAX 190 microplate reader (Molecular Devices, Sunnyvale, Calif.). Six wells were used for each concentration, and each experiment was performed two to three times.
Effect of RO 48-8071 on prostate cancer cell line DU145 viability. […] The culture mediums employed 10% FBS EMEM for culture and 5% FBS EMEM for treatment.

[2] = tested on: BT-20 breast cancer cells; assay: SRB cell viability assay, BT-20; assay type: cell-based; conditions: Homo sapiens, BT-20, Breast (triple negative)
Description: as §1
Effect of RO 48-8071 on estrogen, progesterone, and HER-2/neu receptors negative breast cancer cell line MDA-231 and BT-20 viability. […]

[3] = tested on: BxPC-3 pancreatic cancer cells; assay: SRB cell viability assay, BxPC-3; assay type: cell-based; conditions: Homo sapiens, BxPC-3, Pancreas
Description: as §1
Effect of RO 48-8071 on pancreatic cancer cell line BxPC-3 viability. […]

[4] = tested on: BT-474 breast cancer cells; assay: SRB cell viability assay, BT-474; assay type: cell-based, human; conditions: for IC50: Homo sapiens, BT-474, Breast (ER+ PR+)
Description: The sulforhodamine B (SRB) assay was employed to evaluate the effect of OSC inhibitor Ro 48-8071 on viability of breast cancer and normal mammary gland cells with slight modification of the original procedure established at NCI. Accordingly, the cells were seeded in 96-well plates in 100 μl culture medium and incubated overnight at 37° C. with 5% CO2. […] The surviving or adherent cells were fixed in situ by withdrawing the growth medium and adding 100 μl of PBS and 100 μl of 50% cold trichloroacetic acid and then incubating at 4° C. for 1 h. The surviving cells were washed with ice-water, dried at room temperature (RT), and then stained with 50 μl 4% SRB for 8 min at RT. Unbound dye was removed by washing 5 times with cold 1% acetic acid, and the plates were dried at RT. Bound stain was solubilized with 150 μl 10 mM Tris buffer, and absorbance of samples were measured at 520 nm with a SpecTRA MAX 190 microplate reader (Sunnyvale, Calif.). In these experiments on BT-474, T47-D, and AG11132A cell lines, six wells were used for each concentration, and each experiment was performed at least twice.
as §1
Effect of RO 48-8071 on breast cancer cell line BT-474 viability. […] The culture mediums employed 10% FBS DMEM/F12 for culture and 5% FBS DMEM/F12 for treatment.

[5] = tested on: PC-3 human prostate cancer xenograft; assay: PC-3 prostate tumor xenograft in nude mice
Description: Male athymic nu/nu nude mice, 6 weeks-old (21-25 g) were purchased from Harlan Laboratories, Inc. Human prostate cancer PC-3 cells, […] in 0.15 ml solution mixed with matrigel and DMEM/F12 medium (1/1, v/v) were injected into each flank of mouse subcutaneously, and both flanks of each mouse were injected. When tumor volume reached around 100 mm3, animals were randomly assigned to three groups and the treatment started with Ro 48-8071 (5 mg/kg/day or 20 mg/kg/day) via tail-vein injection for five days, followed by same treatment every other day for seven additional times as shown in the FIG. 14A. Animals in control group received the vehicle alone under identical conditions.

[6] = tested on: PC-3 prostate cancer cells; assay: SRB cell viability assay, PC-3; assay type: cell-based; conditions: Homo sapiens
Description: as §1
Effect of RO 48-8071 on prostate cancer cell line PC-3 viability. […]

[7] = 24 hours, read-out: IC50 (μM) (24 hours)
[8] = 48 hours, read-out: IC50 (μM) (48 hours)

Structure (SMILES): C=CCN(C)CCCCCCOc1ccc(C(=O)c2ccc(Br)cc2)c(F)c1 [Ro 48-8071, 4′-[6-(Allylmethylamino)hexyloxy]-4-bromo-2′-fluorobenzophenone fumarate]
- IC50 ([1]; DU-145, 24 hours, read-out: IC50 (μM) (24 hours)): 13.5 ± 0.895 µM
- IC50 ([1]; DU-145, 48 hours, read-out: IC50 (μM) (48 hours)): 8.61 ± 0.455 µM
- IC50 [2, 7]: 15.8 ± 0.335 µM
- IC50 [2, 8]: 12.7 ± 0.18 µM
- IC50 [3, 7]: 11.4 ± 0.621 µM
- IC50 [3, 8]: 7.11 ± 0.102 µM
- effect on cell viability (SRB) ([4]; BT-474, 24 hours, dose-dependent, FIG. 2A): significantly inhibit the viability
- IC50 [4, 7]: 9.514 ± 0.05 µM
- IC50 [4, 8]: 6.06 ± 0.233 µM
- tumor volume versus control group ([5]; 5 or 20 mg/kg/day, tail-vein injection, P<0.05 ANOVA, FIG. 14A): Significant differences compared with control group
- toxicity at doses used for inhibiting tumor growth ([5]; PC-3 tumor-bearing nude mice): non-toxic
- animal weight, control versus treated groups ([5]; PC-3 tumor-bearing nude mice, FIG. 14B): No significant difference
- IC50 [6, 7]: 17.8 ± 1.29 µM
- IC50 [6, 8]: 11.1 ± 0.35 µM
